# Calls of active or inactive are those of the source.
# Legend:
# Nonstructural protein 1 = Nonstructural protein 1 (Influenza A virus, UniProt Q194T2); assay type: functional, Influenza A virus (A/California/07/2009(H1N1))
# Ion channel NompC = Ion channel NompC (Danio rerio, UniProt Q7T1G6); assay: Dose response cell-based high-throughput screening assay for agonists of the transient receptor potential channel N1 (TRPN1). [Related pubchem assays (depositor defined):AID1424, AID1448]; assay type: functional
# [1] = target: FAD-linked sulfhydryl oxidase ALR (Homo sapiens, UniProt P55789); assay: ALR-catalysed DTT oxidation blockers – biochemical, H2O2 detection, luminescence, cherry-pick, dose response (AID 493248)
# [2] = target: Induced myeloid leukemia cell differentiation protein Mcl-1 (Homo sapiens, UniProt Q07820); assay type: functional
# Mucolipin-3 = target: T1, Mucolipin-3 (Homo sapiens, UniProt Q8TDD5); assay: Fluorescence counterscreen assay for […] agonists: dose response cell-based high-throughput screening assay to identify agonists of the transient receptor potential channel ML3 (TRPML3). [Related pubchem assays: 1424, 1448 ]; assay type: functional
# T1 sequence (Q8TDD5 whole entry): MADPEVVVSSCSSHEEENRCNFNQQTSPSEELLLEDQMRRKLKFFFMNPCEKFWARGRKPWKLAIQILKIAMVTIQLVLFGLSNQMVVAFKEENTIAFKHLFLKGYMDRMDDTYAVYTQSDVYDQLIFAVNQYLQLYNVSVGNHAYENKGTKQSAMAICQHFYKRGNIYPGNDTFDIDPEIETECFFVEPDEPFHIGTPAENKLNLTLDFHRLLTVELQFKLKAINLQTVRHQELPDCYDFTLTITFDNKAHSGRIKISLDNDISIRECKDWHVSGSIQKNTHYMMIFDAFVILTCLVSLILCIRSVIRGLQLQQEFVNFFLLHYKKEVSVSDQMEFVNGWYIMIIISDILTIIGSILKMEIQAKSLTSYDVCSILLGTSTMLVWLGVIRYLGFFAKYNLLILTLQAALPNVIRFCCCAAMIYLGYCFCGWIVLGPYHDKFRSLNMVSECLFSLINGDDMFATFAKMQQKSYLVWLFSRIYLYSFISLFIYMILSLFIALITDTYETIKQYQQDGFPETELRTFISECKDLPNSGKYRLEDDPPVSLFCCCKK
# NADPH oxidase 1 = target: T2, NADPH oxidase 1 (Homo sapiens, UniProt Q9Y5S8); assay: Luminescence-based cell-based dose response assay to identify inhibitors of NADPH oxidase 1 (NOX1).; assay type: functional
# T2 sequence (Q9Y5S8 whole entry): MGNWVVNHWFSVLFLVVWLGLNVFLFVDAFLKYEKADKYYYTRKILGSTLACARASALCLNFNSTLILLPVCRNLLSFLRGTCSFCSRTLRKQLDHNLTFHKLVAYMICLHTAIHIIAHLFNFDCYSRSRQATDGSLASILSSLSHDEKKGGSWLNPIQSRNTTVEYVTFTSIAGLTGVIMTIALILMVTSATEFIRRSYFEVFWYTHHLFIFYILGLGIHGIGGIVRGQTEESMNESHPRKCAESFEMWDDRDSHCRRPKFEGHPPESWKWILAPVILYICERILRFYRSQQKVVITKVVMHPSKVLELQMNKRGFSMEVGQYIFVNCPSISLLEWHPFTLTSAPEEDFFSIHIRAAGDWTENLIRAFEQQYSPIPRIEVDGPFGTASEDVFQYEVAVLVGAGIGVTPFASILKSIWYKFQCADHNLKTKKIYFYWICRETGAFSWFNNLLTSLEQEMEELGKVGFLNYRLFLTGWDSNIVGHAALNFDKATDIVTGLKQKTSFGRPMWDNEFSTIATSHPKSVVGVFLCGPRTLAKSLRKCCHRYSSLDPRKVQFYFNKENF
# [3] = mitochondrial function rescue without frataxin homolog – Friedreich's ataxia, plus single-dose screen, dose response (AID 1465); assay type: functional;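 note: yeast depleted of Yfh1p frataxin homolog grown on glycerol needing respiration; WST-1 tetrazolium dye reduction as measure of cellular dehydrogenase metabolic activity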
# CHO-K1 = assay: Counterscreen for antagonists of the orexin 1 receptor (OX1R; HCRTR1): Homogeneous time resolved fluorescence (HTRF)-based cell-based dose response assay to identify antagonists of the parental CHO-K1 cell line. [Related pubchem assays (depositor defined):AID434989, AID435008, AID463079, AID485270, AID492963, AID492964, AID492965, AID493232, AID504699, AID504701]; assay type: functional; conditions: Cricetulus griseus;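 note: potency for inhibition of ATP-stimulated IP1 production as antagonists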
# [4] = target: T3, Orexin/Hypocretin receptor type 1 (Homo sapiens, UniProt O43613); assay: Homogeneous Time Resolved Fluorescence (HTRF)-based cell-based high throughput dose response assay for antagonists of the orexin 1 receptor (OX1R; HCRTR1). [Related pubchem assays (depositor defined):AID434989, AID435008, AID463079, AID485270, AID492963, AID492964, AID492965, AID493232, AID504717, AID504718]; assay type: functional
# [5] = Luminescence Cell-Based Dose Confirmation HTS to Identify Inhibitors of Platelet Dense Granule Release. [Related pubchem assays: 1663 (Primary HTS), 1678 (Summary of Project)]; assay type: functional
# [6] = target: T3, Orexin/Hypocretin receptor type 1; assay: Fluorescence-based cell-based high throughput dose response assay for antagonists of the orexin 1 receptor (OX1R; HCRTR1). [Related pubchem assays (depositor defined):AID434989, AID435008, AID463079, AID485270, AID492963, AID492964, AID492965, AID493232, AID504717, AID504718]; assay type: functional
# [7] = Counterscreen for antagonists of the orexin 1 receptor (OX1R; HCRTR1): Fluorescence-based cell-based high throughput dose response assay to identify antagonists of the parental CHO cell line. [Related pubchem assays (depositor defined):AID434989, AID435008, AID463079, AID485270, AID492963, AID492964, AID492965, AID493232, AID504699, AID504701]; assay type: functional
# [8] = target: Luciferin 4-monooxygenase (Photinus pyralis, UniProt P08659); assay: inhibition of purified Photinus pyralis luciferase – biochemical, luminescence, dose response (AID 1891)
# Protein RecA = target: T4, Protein RecA (Mycobacterium tuberculosis, UniProt P9WHJ3); assay: Fluorescence Cell-Free Homogeneous Dose Retest to Identify Inhibitors of RecA-Intein Splicing Activity. [Related pubchem assays (depositor defined):AID2097, AID2223, AID489010, AID492950]; assay type: functional
# T4 sequence (P9WHJ3 whole entry): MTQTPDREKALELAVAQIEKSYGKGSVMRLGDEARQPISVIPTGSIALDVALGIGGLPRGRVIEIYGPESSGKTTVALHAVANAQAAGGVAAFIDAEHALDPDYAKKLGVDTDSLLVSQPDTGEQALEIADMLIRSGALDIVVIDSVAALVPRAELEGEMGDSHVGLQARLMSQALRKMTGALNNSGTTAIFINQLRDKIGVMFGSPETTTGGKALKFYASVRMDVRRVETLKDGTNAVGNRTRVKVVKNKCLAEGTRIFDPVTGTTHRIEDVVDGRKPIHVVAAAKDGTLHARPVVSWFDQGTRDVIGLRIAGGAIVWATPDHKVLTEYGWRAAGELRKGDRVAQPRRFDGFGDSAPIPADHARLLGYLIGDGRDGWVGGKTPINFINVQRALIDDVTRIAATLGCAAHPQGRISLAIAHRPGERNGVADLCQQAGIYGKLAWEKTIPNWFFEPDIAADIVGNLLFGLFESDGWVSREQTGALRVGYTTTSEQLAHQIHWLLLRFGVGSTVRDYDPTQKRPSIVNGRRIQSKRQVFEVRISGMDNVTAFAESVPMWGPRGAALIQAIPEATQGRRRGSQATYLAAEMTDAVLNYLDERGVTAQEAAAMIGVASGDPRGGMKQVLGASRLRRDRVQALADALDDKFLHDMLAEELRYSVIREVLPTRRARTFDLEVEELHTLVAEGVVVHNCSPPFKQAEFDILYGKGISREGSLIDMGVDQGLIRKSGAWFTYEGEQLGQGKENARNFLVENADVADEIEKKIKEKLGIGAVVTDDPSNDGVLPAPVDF
# [9] = viability loss of HPDE-C7K cells – cell-based, fluorescence, HTS, primary screen (AID 431); assay type: functional; conditions: Homo sapiens
# [10] = Luminescent dose response cell-based high throughput screening assay for inhibitors of the Janus kinase 2 mutant JAK2V617F. [Related pubchem assays: 1446 (Primary screen.), 1521 (Confirmation assay.), 1486 (Counter screen.)]; assay type: functional
# [11] = target: T5, Replicative DNA helicase DnaB (Mycobacterium tuberculosis, UniProt P9WMR3); assay: DnaB intein splicing inhibitors, dose response, biochemical, cell-free fluorescence (AID 449749); assay type: functional
# T5 sequence (P9WMR3 whole entry): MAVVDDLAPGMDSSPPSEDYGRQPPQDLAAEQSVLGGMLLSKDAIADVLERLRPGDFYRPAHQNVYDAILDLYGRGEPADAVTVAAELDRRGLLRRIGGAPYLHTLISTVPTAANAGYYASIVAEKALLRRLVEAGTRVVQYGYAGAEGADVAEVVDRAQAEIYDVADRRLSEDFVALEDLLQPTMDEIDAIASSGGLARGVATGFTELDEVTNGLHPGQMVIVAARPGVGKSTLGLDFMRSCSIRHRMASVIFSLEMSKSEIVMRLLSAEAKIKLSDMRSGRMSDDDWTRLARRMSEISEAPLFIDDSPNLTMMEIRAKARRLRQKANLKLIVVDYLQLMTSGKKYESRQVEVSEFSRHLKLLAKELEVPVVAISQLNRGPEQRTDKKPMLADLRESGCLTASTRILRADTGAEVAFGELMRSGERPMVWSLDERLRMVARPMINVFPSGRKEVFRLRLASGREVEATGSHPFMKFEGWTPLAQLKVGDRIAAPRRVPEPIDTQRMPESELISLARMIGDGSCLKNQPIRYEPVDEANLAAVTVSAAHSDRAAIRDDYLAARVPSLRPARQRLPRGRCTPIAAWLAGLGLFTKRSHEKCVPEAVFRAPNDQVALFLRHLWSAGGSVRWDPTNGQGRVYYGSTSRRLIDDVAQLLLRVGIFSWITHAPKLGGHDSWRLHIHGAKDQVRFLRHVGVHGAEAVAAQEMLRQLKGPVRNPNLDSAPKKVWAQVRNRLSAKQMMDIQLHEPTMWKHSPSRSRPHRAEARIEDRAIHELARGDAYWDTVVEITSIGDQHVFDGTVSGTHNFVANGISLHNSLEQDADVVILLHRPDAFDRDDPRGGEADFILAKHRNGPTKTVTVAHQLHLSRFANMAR
# [12] = target: DNA damage-inducible transcript 3 protein (Mus musculus, UniProt P35639); assay type: functional, Cricetulus griseus
# [13] = HPDE-C7 pancreatic duct cell viability loss – fluorescence, HTS (AID 430); assay type: functional, cell-based; conditions: Homo sapiens
# [14] = NIH3T3 cell viability loss – ATP luminescence, mouse fibroblasts, counter-screen, dose response (AID 2010); assay type: functional, cell-based;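 note: cells exposed to compound for about 90 hours before reading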
# [15] = Trypanosoma cruzi growth suppression in host cells – NIH3T3 host cells, beta-gal luminescence, confirmation (AID 2044); assay type: functional, cell-based;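 note: intracellular parasites grown in NIH/3T3 mouse fibroblasts as host cells; luminescent beta-galactosidase reporter signal from transgenic T. cruzi replicating inside host cells; inhibitors lower the luminescence signal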
# [16] = target: Intestinal-type alkaline phosphatase (Homo sapiens, UniProt P09923); assay: human intestinal alkaline phosphatase activators, dose response, biochemical, luminescence, uHTS hits (AID 463120); assay type: functional
# [17] = target: T6, E3 ubiquitin-protein ligase XIAP (Homo sapiens, UniProt P98170); assay: SAR analysis of Antagonists of XIAP-Bir3 domain of IAP-family anti-apoptotic proteins. [Related pubchem assays (depositor defined):AID1018, AID1449, AID1513, AID1514, AID1638]
# [18] = target: T6, E3 ubiquitin-protein ligase XIAP; assay: SAR analysis of Antagonists of IAP-family anti-apoptotic proteins. [Related pubchem assays (depositor defined):AID1018, AID1449, AID1513, AID1514, AID1638]
# [19] = target: Signal transducer and activator of transcription 1-alpha/beta (Homo sapiens, UniProt P42224); assay: STAT3 blockade with qPCR and toxicity readouts – cell-based, STAT1 panel, cytotoxicity, late-stage follow-up, panel member STAT1 Inhibition (AID 2078)
# [20] = target: Signal transducer and activator of transcription 3 (Homo sapiens, UniProt P40763); assay: STAT3 blockade with qPCR and toxicity readouts – cell-based, STAT1 panel, cytotoxicity, late-stage follow-up, panel member STAT3 Inhibition (AID 2078)
# [21] = target: Sphingosine 1-phosphate receptor 4 (Homo sapiens, UniProt O95977); assay: Late-stage fluorescence dose response cell-based assay to identify agonists of the Sphingosine 1-Phosphate Receptor 4 (S1P4): purchased compounds EC50. [Related pubchem assays (depositor defined):AID1509, AID1523, AID1563, AID1686, AID1701, AID1801]; assay type: functional
# Sequence of Sphingosine 1-phosphate receptor 4 (O95977 whole entry): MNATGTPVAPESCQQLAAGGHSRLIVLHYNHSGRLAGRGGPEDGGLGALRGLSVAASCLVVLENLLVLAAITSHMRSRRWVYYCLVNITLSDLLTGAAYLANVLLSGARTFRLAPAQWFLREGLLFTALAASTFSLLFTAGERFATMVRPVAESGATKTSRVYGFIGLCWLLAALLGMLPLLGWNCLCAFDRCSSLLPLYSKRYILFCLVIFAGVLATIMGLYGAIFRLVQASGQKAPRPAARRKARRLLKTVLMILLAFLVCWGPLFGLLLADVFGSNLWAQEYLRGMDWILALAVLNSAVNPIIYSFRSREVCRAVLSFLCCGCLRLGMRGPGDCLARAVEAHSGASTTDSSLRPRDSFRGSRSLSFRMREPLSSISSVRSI
# T3 sequence (O43613 whole entry): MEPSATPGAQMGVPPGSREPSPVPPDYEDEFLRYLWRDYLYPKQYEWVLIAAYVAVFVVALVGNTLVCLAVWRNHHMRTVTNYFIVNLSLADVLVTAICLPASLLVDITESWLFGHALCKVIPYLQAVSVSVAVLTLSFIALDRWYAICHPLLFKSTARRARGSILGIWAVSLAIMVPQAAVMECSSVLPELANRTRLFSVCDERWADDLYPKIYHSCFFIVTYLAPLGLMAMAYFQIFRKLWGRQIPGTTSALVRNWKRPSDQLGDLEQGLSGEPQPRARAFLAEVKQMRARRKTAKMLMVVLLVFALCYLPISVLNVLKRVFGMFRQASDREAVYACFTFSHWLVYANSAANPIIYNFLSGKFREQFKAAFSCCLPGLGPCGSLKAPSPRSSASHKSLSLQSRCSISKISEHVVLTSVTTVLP
# T6 sequence (P98170 whole entry, the tested form may be a part): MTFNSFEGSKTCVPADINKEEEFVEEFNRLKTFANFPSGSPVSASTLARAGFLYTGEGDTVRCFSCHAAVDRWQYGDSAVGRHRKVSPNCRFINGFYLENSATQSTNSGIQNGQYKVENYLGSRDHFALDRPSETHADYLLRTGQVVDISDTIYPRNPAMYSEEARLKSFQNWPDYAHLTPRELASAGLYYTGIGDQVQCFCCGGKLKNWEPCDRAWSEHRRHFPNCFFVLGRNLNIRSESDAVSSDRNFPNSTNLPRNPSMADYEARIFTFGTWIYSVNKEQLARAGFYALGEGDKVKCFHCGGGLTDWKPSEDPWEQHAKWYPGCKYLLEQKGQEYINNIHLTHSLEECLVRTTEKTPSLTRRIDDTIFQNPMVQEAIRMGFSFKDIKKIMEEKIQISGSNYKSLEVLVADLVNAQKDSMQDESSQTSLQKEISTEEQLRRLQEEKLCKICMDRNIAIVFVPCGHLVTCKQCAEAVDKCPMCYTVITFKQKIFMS
# Sequence of Luciferin 4-monooxygenase (P08659 whole entry): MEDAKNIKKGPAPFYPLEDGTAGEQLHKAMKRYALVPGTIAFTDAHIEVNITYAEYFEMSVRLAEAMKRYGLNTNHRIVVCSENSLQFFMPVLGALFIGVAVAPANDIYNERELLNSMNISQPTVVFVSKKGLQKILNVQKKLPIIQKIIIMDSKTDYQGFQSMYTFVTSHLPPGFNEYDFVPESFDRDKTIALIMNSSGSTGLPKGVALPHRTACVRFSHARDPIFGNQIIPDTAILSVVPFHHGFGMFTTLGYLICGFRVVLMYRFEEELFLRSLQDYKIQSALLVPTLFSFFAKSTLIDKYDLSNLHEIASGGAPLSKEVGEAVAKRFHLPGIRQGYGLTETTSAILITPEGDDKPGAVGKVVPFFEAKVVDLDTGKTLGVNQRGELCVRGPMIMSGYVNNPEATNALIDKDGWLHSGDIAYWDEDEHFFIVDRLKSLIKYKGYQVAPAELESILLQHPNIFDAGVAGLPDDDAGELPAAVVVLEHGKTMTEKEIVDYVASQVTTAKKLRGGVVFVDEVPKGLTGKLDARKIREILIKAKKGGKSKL
# Sequence of Induced myeloid leukemia cell differentiation protein Mcl-1 (Q07820 whole entry): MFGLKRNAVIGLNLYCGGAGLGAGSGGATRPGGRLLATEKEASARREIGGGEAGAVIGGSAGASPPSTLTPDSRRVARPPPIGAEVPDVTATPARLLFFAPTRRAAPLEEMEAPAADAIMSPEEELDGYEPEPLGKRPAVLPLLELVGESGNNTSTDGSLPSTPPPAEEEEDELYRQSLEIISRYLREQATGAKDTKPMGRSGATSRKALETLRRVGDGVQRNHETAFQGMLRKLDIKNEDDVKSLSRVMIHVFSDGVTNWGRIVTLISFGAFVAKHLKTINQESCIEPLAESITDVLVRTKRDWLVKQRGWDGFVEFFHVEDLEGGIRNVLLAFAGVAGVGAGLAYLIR
# Sequence of FAD-linked sulfhydryl oxidase ALR (P55789 whole entry): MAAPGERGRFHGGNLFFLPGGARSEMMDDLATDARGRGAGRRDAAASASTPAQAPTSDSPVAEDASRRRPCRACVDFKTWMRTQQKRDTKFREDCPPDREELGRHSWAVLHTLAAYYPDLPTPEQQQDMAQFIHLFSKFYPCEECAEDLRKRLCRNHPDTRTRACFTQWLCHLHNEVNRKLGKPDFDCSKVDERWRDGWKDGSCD
# Sequence of Signal transducer and activator of transcription 1-alpha/beta (P42224 whole entry): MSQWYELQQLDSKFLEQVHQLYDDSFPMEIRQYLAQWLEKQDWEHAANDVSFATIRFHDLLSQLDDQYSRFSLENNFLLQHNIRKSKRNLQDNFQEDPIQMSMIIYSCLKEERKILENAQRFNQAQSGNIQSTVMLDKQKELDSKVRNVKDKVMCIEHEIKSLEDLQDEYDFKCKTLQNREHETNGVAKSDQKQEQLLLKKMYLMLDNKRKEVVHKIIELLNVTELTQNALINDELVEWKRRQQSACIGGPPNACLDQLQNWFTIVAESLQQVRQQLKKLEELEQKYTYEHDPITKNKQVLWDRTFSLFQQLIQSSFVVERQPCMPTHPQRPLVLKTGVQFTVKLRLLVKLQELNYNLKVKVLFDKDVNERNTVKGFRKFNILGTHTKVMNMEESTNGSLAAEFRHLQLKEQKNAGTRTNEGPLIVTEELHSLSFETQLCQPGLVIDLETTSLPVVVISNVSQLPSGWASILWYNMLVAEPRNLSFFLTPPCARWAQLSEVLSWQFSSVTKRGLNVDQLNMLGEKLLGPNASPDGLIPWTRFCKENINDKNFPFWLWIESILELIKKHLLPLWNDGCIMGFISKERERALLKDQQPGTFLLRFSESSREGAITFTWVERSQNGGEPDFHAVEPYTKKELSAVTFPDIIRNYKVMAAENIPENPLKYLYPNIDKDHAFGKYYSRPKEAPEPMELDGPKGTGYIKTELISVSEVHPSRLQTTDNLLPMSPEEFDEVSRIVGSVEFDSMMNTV
# Sequence of Signal transducer and activator of transcription 3 (P40763 whole entry): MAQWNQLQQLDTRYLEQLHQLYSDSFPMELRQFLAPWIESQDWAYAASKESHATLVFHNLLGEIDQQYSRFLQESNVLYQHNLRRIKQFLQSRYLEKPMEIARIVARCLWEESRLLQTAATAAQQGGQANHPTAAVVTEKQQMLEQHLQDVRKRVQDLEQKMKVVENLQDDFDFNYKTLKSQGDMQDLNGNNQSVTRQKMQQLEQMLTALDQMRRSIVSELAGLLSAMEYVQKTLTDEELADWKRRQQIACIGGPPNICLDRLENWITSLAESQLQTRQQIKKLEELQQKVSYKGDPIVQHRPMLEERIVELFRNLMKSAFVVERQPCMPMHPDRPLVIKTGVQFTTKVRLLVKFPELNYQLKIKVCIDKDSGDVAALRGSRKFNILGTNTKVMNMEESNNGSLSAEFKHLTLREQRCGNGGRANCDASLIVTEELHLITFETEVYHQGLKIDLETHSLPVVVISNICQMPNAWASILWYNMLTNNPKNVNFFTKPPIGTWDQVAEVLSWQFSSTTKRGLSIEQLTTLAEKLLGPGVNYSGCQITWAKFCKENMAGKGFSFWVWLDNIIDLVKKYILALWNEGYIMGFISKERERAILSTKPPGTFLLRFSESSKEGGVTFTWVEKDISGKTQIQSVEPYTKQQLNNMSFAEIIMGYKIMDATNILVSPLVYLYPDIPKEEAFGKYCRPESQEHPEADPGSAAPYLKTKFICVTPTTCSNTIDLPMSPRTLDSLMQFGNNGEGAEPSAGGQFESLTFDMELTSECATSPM
# Sequence of DNA damage-inducible transcript 3 protein (P35639 whole entry): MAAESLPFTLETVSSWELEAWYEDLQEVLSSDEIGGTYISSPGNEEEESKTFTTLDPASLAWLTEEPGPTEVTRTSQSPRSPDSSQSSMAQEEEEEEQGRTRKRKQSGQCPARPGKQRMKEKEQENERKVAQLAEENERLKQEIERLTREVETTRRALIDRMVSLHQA
# Sequence of Nonstructural protein 1 (Q194T2 whole entry): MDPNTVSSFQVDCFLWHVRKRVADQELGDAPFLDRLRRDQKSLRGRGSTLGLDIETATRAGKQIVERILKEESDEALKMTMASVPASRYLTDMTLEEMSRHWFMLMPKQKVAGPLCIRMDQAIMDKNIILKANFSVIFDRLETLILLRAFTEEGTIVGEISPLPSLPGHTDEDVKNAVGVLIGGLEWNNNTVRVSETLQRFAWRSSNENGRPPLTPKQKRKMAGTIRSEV
# Sequence of Intestinal-type alkaline phosphatase (P09923 whole entry, the tested form may be a part): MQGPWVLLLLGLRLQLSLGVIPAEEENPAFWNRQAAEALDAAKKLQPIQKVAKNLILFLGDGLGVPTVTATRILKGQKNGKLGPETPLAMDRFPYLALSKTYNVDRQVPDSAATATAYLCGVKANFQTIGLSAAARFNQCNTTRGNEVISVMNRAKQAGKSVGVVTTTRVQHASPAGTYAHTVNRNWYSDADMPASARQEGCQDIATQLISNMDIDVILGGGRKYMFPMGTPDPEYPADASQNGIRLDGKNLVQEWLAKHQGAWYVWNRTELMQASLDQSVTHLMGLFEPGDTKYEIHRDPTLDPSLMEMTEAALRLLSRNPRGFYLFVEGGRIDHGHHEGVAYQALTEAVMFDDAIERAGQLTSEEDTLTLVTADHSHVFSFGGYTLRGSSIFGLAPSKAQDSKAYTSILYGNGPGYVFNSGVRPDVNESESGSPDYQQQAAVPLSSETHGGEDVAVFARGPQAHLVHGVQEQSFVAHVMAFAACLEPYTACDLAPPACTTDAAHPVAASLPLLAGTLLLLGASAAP
smiles,measurement,setting,value
CN(C)c1ccc(NC(=O)Nc2ccc3snnc3c2)cc1,IC50,Nonstructural protein 1,> 100 µM (active)
same,EC50,Ion channel NompC,> 29.9 µM (inactive)
same,AC50,[1],0.204 µM (active)
same,IC50,[2],0.455 µM (active)
same,EC50,Mucolipin-3,> 29.9 µM (not active)
same,IC50,NADPH oxidase 1,0.187 µM (active)
O=C(N/C(=C/c1cccc(Br)c1)c1nc(S)n[nH]1)c1ccccc1,EC50,[3],> 100 µM (active)
same,IC50,CHO-K1,> 66.2 µM (inactive)
same,IC50,[4],> 66.2 µM (inactive)
same,EC50,[5],> 112 µM (not active)
same,IC50,[6],16.8 µM (inactive)
same,IC50,[7],33.3 µM (inactive)
same,EC50,[8],28.9 µM (active)
CS(=O)(=O)c1nc(-c2ccco2)cc(C(F)(F)F)n1,EC50,Protein RecA,> 380 µM (inactive)
same,EC50,[9],5.96 µM (active)
same,IC50,[10],0.644 µM (active)
same,AC50,[11],> 380 µM (inactive)
same,Absolute IC50 (CHOP),[12],10 µM
same,EC50,[13],6.49 µM (active)
same,EC50,[14],3.73 µM (active)
same,EC50,[15],1.61 µM (active)
O=C(COc1ccc2ccccc2c1Br)N1CCCCC1,EC50,[16],> 100 µM (inactive)
CN[C@@H](C)C(=O)N[C@H](C(=O)N1CCC[C@H]1C(=O)Nc1ccc2[nH]ccc2c1)C(C)C,IC50,[17],14.3 µM (active)
same,IC50,[18],2 µM (active)
Cc1sc2ncnc(N3CCC(Cc4ccccc4)CC3)c2c1C,IC50,[19],> 55.7 µM (inactive)
same,IC50,[20],> 18.6 µM (inactive)
Cc1ccc(CNC(=O)C(C)OC(=O)c2c(C)nn(Cc3ccccc3)c2Cl)cc1 (configuration not stated),EC50,[21],> 50 µM (inactive)
